Legend:
cyclin D1 = experiment: Cyclin D1 percentage degradation in Calu-1 cells (immunoblotting); type: cell-based; conditions: 10 μM, 16 hours
Outline: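 Cyclin D1 degradation was assessed by western blot. Clarified lysates, obtained by RIPA lysis with inhibitors and centrifugation at 13,000 rpm, were normalized by BCA protein assay and separated by SDS-PAGE. Bands were detected with Western ECL Substrate on a Bio-Rad ChemiDoc MP Imaging system and quantified in Image Lab software to derive percentage degradation.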

CDK4 = molecular target: T1, CDK4 (Homo sapiens, UniProt P11802); experiment: CDK4 percentage degradation in Calu-1 cells (immunoblotting); type: cell-based; conditions: Calu-1 cells, 10 μM, 16 hours; read-out: CDK4 Degradation (10 μM)
T1 construct: endogenous in cells; host or cells: Calu-1
T1 sequence (P11802 2-303 limits assumed): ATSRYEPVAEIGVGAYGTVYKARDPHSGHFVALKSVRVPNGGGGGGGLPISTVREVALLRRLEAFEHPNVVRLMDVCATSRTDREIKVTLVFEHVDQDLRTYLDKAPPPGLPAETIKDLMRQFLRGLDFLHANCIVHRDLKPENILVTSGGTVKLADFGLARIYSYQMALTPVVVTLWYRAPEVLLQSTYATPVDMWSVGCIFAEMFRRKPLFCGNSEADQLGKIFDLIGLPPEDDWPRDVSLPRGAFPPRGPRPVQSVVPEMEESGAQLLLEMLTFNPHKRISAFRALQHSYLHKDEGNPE
T1 sequence (P24385 whole entry partner): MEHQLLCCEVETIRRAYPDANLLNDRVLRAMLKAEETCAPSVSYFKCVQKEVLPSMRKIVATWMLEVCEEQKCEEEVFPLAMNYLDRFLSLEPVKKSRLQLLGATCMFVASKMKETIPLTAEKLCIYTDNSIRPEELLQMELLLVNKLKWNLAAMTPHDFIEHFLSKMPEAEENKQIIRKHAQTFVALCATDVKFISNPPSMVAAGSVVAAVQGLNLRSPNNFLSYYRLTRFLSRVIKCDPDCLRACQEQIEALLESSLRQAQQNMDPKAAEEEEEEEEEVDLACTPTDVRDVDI
T1 sequence (Q16531 2-1140 limits assumed, further chain): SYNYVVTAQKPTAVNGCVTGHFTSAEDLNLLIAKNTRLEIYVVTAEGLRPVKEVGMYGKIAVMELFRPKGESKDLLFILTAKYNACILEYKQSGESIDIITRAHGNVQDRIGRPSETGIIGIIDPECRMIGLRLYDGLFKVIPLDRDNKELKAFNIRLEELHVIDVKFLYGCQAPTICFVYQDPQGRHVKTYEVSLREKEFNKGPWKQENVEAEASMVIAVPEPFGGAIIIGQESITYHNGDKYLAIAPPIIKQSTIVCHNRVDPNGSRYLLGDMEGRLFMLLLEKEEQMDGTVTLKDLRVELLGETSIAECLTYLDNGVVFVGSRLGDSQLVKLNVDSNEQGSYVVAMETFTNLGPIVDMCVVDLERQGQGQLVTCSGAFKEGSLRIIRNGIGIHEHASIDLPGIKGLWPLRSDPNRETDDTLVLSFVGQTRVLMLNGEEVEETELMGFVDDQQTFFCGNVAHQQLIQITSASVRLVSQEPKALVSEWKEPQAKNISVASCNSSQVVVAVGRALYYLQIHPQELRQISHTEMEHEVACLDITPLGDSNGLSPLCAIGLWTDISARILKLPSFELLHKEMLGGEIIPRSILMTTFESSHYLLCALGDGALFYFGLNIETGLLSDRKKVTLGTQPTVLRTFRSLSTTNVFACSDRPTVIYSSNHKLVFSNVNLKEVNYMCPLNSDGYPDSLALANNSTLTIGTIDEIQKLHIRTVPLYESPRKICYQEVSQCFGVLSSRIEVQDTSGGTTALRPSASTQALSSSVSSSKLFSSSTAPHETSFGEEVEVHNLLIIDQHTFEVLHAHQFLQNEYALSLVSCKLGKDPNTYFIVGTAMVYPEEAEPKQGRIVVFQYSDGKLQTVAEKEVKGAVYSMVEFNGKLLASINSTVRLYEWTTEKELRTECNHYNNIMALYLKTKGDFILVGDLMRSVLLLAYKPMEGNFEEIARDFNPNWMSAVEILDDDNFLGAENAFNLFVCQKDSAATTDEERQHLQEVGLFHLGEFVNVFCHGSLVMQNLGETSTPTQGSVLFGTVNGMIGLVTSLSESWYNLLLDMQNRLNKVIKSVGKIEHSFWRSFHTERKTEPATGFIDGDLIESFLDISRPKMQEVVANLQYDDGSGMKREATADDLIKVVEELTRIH
Outline: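 CDK4 degradation was measured by immunoblotting. Cells were washed in cold PBS and lysed in RIPA buffer with inhibitors for 30 min at 4° C., then spun at 13,000 rpm to clear. After BCA protein determination, lysates were heated at 99° C. for 5 min in Laemmli buffer, resolved on SDS-PAGE, imaged on a ChemiDoc MP with ECL substrate, and band intensities quantified.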

Row | SMILES | inhibition at 10 µM (CDK4) [%] | CyclinD1 Degradation (10 μM) (cyclin D1)
1 | Cc1nc(NC(=O)c2ccccc2NC(=O)CCCCCNC(=O)CN2CCN(Cc3ccc(Nc4ncc(F)c(-c5cc(F)c6nc(C)n(C(C)C)c6c5)n4)nc3)CC2)sc1C [CPD-276, N-(4,5-Dimethylthiazol-2-yl)-2-(6-(2-(4-((6-((5-fluoro-4-(4-fluoro-1-isopropyl-2-methyl-1H-benzo[d]imidazol-6-yl)pyrimidin-2-yl)amino)pyridin-3-yl)methyl)piperazin-1-yl)acetamido)hexanamido)benzamide] | < 30 | D (protein percentage degradation < 30%)
2 | Cc1nc(NC(=O)c2ccccc2NC(=O)CCCCCCNC(=O)CN2CCN(Cc3ccc(Nc4ncc(F)c(-c5cc(F)c6nc(C)n(C(C)C)c6c5)n4)nc3)CC2)sc1C [CPD-277, N-(4,5-Dimethylthiazol-2-yl)-2-(7-(2-(4-((6-((5-fluoro-4-(4-fluoro-1-isopropyl-2-methyl-1H-benzo[d]imidazol-6-yl)pyrimidin-2-yl)amino)pyridin-3-yl)methyl)piperazin-1-yl)acetamido)heptanamido)benzamide] | < 30 | D (protein percentage degradation < 30%)
3 | Cc1nc(NC(=O)c2ccccc2NC(=O)CCCCCCCNC(=O)CN2CCN(Cc3ccc(Nc4ncc(F)c(-c5cc(F)c6nc(C)n(C(C)C)c6c5)n4)nc3)CC2)sc1C [CPD-278, N-(4,5-Dimethylthiazol-2-yl)-2-(8-(2-(4-((6-((5-fluoro-4-(4-fluoro-1-isopropyl-2-methyl-1H-benzo[d]imidazol-6-yl)pyrimidin-2-yl)amino)pyridin-3-yl)methyl)piperazin-1-yl)acetamido)octanamido)benzamide] | < 30 | D (protein percentage degradation < 30%)
4 | Cc1nc(NC(=O)c2ccccc2NC(=O)CCCCCCCCNC(=O)CN2CCN(Cc3ccc(Nc4ncc(F)c(-c5cc(F)c6nc(C)n(C(C)C)c6c5)n4)nc3)CC2)sc1C [CPD-279, N-(4,5-Dimethylthiazol-2-yl)-2-(9-(2-(4-((6-((5-fluoro-4-(4-fluoro-1-isopropyl-2-methyl-1H-benzo[d]imidazol-6-yl)pyrimidin-2-yl)amino)pyridin-3-yl)methyl)piperazin-1-yl)acetamido)nonanamido)benzamide] | < 30 | D (protein percentage degradation < 30%)
5 | Cc1nc(NC(=O)c2ccccc2NC(=O)CNC(=O)CN2CCN(c3ccc(Nc4ncc5cc(C(=O)N(C)C)n(C6CCCC6)c5n4)nc3)CC2)sc1C [CPD-286, 7-Cyclopentyl-2-((5-(4-(2-((2-((2-((4,5-dimethylthiazol-2-yl)carbamoyl)phenyl)amino)-2-oxoethyl)amino)-2-oxoethyl)piperazin-1-yl)pyridin-2-yl)amino)-N,N-dimethyl-7H-pyrrolo[2,3-d]pyrimidine-6-carboxamide] | 50 to 80 | A (protein percentage degradation >= 80%)
6 | Cc1nc(NC(=O)c2ccccc2NC(=O)CCNC(=O)CN2CCN(c3ccc(Nc4ncc5cc(C(=O)N(C)C)n(C6CCCC6)c5n4)nc3)CC2)sc1C [CPD-287, 7-Cyclopentyl-2-((5-(4-(2-((3-((2-((4,5-dimethylthiazol-2-yl)carbamoyl)phenyl)amino)-3-oxopropyl)amino)-2-oxoethyl)piperazin-1-yl)pyridin-2-yl)amino)-N,N-dimethyl-7H-pyrrolo[2,3-d]pyrimidine-6-carboxamide] | 30 to 50 | A (protein percentage degradation >= 80%)
7 | Cc1nc(NC(=O)c2ccccc2NC(=O)CCCNC(=O)CN2CCN(c3ccc(Nc4ncc5cc(C(=O)N(C)C)n(C6CCCC6)c5n4)nc3)CC2)sc1C [CPD-288, 7-Cyclopentyl-2-((5-(4-(2-((4-((2-((4,5-dimethylthiazol-2-yl)carbamoyl)phenyl)amino)-4-oxobutyl)amino)-2-oxoethyl)piperazin-1-yl)pyridin-2-yl)amino)-N,N-dimethyl-7H-pyrrolo[2,3-d]pyrimidine-6-carboxamide] | 50 to 80 | A (protein percentage degradation >= 80%)

Second part, led by results:

Row | inhibition at 10 µM (CDK4) [%] | SMILES | CyclinD1 Degradation (10 μM) (cyclin D1)
8 | < 30 | Cc1nc(NC(=O)c2ccccc2NC(=O)CCNC(=O)CN2CCN(Cc3ccc(Nc4ncc(F)c(-c5cc(F)c6nc(C)n(C(C)C)c6c5)n4)nc3)CC2)sc1C [CPD-273, N-(4,5-Dimethylthiazol-2-yl)-2-(3-(2-(4-((6-((5-fluoro-4-(4-fluoro-1-isopropyl-2-methyl-1H-benzo[d]imidazol-6-yl)pyrimidin-2-yl)amino)pyridin-3-yl)methyl)piperazin-1-yl)acetamido)propanamido)benzamide] | D (protein percentage degradation < 30%)
9 | < 30 | Cc1nc(NC(=O)c2ccccc2NC(=O)CCCNC(=O)CN2CCN(Cc3ccc(Nc4ncc(F)c(-c5cc(F)c6nc(C)n(C(C)C)c6c5)n4)nc3)CC2)sc1C [CPD-274, N-(4,5-Dimethylthiazol-2-yl)-2-(4-(2-(4-((6-((5-fluoro-4-(4-fluoro-1-isopropyl-2-methyl-1H-benzo[d]imidazol-6-yl)pyrimidin-2-yl)amino)pyridin-3-yl)methyl)piperazin-1-yl)acetamido)butanamido)benzamide] | B (protein percentage degradation < 80%, and >= 50%)
10 | < 30 | Cc1nc(NC(=O)c2ccccc2NC(=O)CCCCNC(=O)CN2CCN(Cc3ccc(Nc4ncc(F)c(-c5cc(F)c6nc(C)n(C(C)C)c6c5)n4)nc3)CC2)sc1C [CPD-275, N-(4,5-Dimethylthiazol-2-yl)-2-(5-(2-(4-((6-((5-fluoro-4-(4-fluoro-1-isopropyl-2-methyl-1H-benzo[d]imidazol-6-yl)pyrimidin-2-yl)amino)pyridin-3-yl)methyl)piperazin-1-yl)acetamido)pentanamido)benzamide] | D (protein percentage degradation < 30%)
11 | < 30 | Cc1nc(NC(=O)c2ccccc2NC(=O)CCOCCNC(=O)CN2CCN(Cc3ccc(Nc4ncc(F)c(-c5cc(F)c6nc(C)n(C(C)C)c6c5)n4)nc3)CC2)sc1C [CPD-280, N-(4,5-Dimethylthiazol-2-yl)-2-(3-(2-(2-(4-((6-((5-fluoro-4-(4-fluoro-1-isopropyl-2-methyl-1H-benzo[d]imidazol-6-yl)pyrimidin-2-yl)amino)pyridin-3-yl)methyl)piperazin-1-yl)acetamido)ethoxy)propanamido)benzamide] | D (protein percentage degradation < 30%)
12 | < 30 | Cc1nc(NC(=O)c2ccccc2NC(=O)CCOCCOCCNC(=O)CN2CCN(Cc3ccc(Nc4ncc(F)c(-c5cc(F)c6nc(C)n(C(C)C)c6c5)n4)nc3)CC2)sc1C [CPD-281, N-(4,5-Dimethylthiazol-2-yl)-2-(3-(2-(2-(2-(4-((6-((5-fluoro-4-(4-fluoro-1-isopropyl-2-methyl-1H-benzo[d]imidazol-6-yl)pyrimidin-2-yl)amino)pyridin-3-yl)methyl)piperazin-1-yl)acetamido)ethoxy)ethoxy)propanamido)benzamide] | D (protein percentage degradation < 30%)
13 | < 30 | Cc1nc(NC(=O)c2ccccc2NC(=O)CCOCCOCCOCCNC(=O)CN2CCN(Cc3ccc(Nc4ncc(F)c(-c5cc(F)c6nc(C)n(C(C)C)c6c5)n4)nc3)CC2)sc1C [CPD-282, N-(4,5-Dimethylthiazol-2-yl)-2-(1-(4-((6-((5-fluoro-4-(4-fluoro-1-isopropyl-2-methyl-1H-benzo[d]imidazol-6-yl)pyrimidin-2-yl)amino)pyridin-3-yl)methyl)piperazin-1-yl)-2-oxo-6,9,12-trioxa-3-azapentadecan-15-amido)benzamide] | D (protein percentage degradation < 30%)
14 | < 30 | Cc1nc(NC(=O)c2ccccc2NC(=O)CCOCCOCCOCCOCCNC(=O)CN2CCN(Cc3ccc(Nc4ncc(F)c(-c5cc(F)c6nc(C)n(C(C)C)c6c5)n4)nc3)CC2)sc1C [CPD-283, N-(4,5-Dimethylthiazol-2-yl)-2-(1-(4-((6-((5-fluoro-4-(4-fluoro-1-isopropyl-2-methyl-1H-benzo[d]imidazol-6-yl)pyrimidin-2-yl)amino)pyridin-3-yl)methyl)piperazin-1-yl)-2-oxo-6,9,12,15-tetraoxa-3-azaoctadecan-18-amido)benzamide] | D (protein percentage degradation < 30%)
15 | < 30 | Cc1nc(NC(=O)c2ccccc2NC(=O)CCOCCOCCOCCOCCOCCNC(=O)CN2CCN(Cc3ccc(Nc4ncc(F)c(-c5cc(F)c6nc(C)n(C(C)C)c6c5)n4)nc3)CC2)sc1C [CPD-284, N-(4,5-Dimethylthiazol-2-yl)-2-(1-(4-((6-((5-fluoro-4-(4-fluoro-1-isopropyl-2-methyl-1H-benzo[d]imidazol-6-yl)pyrimidin-2-yl)amino)pyridin-3-yl)methyl)piperazin-1-yl)-2-oxo-6,9,12,15,18-pentaoxa-3-azahenicosan-21-amido)benzamide] | D (protein percentage degradation < 30%)
16 | < 30 | Cc1nc(NC(=O)c2ccccc2NC(=O)CCOCCOCCOCCOCCOCCOCCNC(=O)CN2CCN(Cc3ccc(Nc4ncc(F)c(-c5cc(F)c6nc(C)n(C(C)C)c6c5)n4)nc3)CC2)sc1C [CPD-285, N-(4,5-Dimethylthiazol-2-yl)-2-(1-(4-((6-((5-fluoro-4-(4-fluoro-1-isopropyl-2-methyl-1H-benzo[d]imidazol-6-yl)pyrimidin-2-yl)amino)pyridin-3-yl)methyl)piperazin-1-yl)-2-oxo-6,9,12,15,18,21-hexaoxa-3-azatetracosan-24-amido)benzamide] | D (protein percentage degradation < 30%)
